# From patent US20210041447A1, “AZACARBOLINE COMPOUNDS FOR THE DETECTION OF TAU AGGREGATES” (AC IMMUNE SA, priority 2018, published 2021)
# Where two headings read alike, the source gives them in different places.
# Columns and labels:
# Tau = Tau (Homo sapiens, UniProt P10636); experiment: Tau binding in AD brain homogenate, competition with 18F-labeled Tau binder; design: High affinity to Tau: key: −: poor; ∘: moderate; +: good; ++: very good; +++: excellent; settings: for High affinity to Tau: AD brain homogenate, non-radioactive fluorine-19 derivatives; for IC50: human AD brain homogenate, fluorine-19 derivatives
# Chain of Tau (P10636 623-708 limits assumed): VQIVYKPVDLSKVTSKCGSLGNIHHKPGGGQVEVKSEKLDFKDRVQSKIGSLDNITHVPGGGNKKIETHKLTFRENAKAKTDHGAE
# Experimental: (§1) 20 μg of human Alzheimer disease brain homogenate was incubated with a dilution series of each test compound (1000 to 0.06 nM) in the presence of 800 Bq of ^18F-labeled Tau binder. The samples were shaken at 110 rpm for 45 min at 37° C. Samples were then filtered through GF/B 96 well filter plates and washed twice with 300 μL assay buffer (PBS containing 0.1% BSA and 2% DMSO). Thereafter, filter plates were sealed and a Fuji Film Imaging Plate (BAS-SR2025) was placed on top. The imaging plate was analyzed after overnight exposition using a Fuji Film BAS-5000. Non-specific signal was determined with samples containing ^18F-labeled Tau-reference binder in the presence of assay buffer without brain substrate and competitor. Specific binding was calculated by subtracting the non-specific signal from the measured samples signal. The unblocked ^18F-labeled Tau-binder signal was defined as total binding. IC50 values were calculated by Prism V6 (GraphPad) setting total binding to 100%.
# MAO A [1] = target: T1, MAO A (Mus musculus, UniProt Q64133); experiment: Binding affinity to MAO A in mouse brain homogenate, [18F]fluoroethyl harmine competition; settings: for IC50: 18F-FEH competition; for Low affinity to MAO A (mouse homogenate): key: −: poor; ∘: moderate; +: good; ++: very good; +++: excellent
# T1 construct: from tissue; host or cells: mouse brain homogenate
# T1 sequence (Q64133 1-526): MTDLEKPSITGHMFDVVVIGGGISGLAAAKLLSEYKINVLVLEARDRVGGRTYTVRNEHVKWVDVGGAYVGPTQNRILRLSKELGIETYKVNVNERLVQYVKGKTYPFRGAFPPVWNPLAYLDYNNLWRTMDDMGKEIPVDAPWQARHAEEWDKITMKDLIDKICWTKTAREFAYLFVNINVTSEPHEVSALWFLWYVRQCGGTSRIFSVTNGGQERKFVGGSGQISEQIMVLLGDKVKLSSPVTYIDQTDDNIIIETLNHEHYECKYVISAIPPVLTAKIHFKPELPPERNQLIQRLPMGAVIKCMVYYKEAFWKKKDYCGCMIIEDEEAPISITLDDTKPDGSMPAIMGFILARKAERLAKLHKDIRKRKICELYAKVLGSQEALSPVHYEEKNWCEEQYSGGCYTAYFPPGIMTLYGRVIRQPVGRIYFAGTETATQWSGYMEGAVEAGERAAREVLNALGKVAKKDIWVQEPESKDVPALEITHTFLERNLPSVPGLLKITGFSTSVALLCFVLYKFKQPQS
# Experimental: as §1, with “of” for “of human Alzheimer disease”, “homogenate (without AD pathology)” for “homogenate”, “18F-labeled MAO-A binder ([^18F]fluoroethyl harmine, FEH).” for “^18F-labeled Tau binder.”, “96-well” for “96 well”, “FEH” for “Tau-reference binder”, “FEH” for “Tau-binder”
# amyloid-beta = amyloid-beta (Homo sapiens, UniProt P05067); experiment: Binding affinity to amyloid-beta in AD brain homogenate, competition with 18F-labeled beta-amyloid binder; design: Low affinity to amyloid-beta: key: −: poor; ∘: moderate; +: good; ++: very good; +++: excellent
# Chain of amyloid-beta (P05067 672-711 limits assumed): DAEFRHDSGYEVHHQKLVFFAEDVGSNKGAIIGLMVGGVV
# Experimental: as §1, with “beta-amyloid” for “Tau”, “96-well” for “96 well”, “beta-amyloid” for “Tau-reference”, “beta-amyloid binder” for “Tau-binder”
# MAO A [2] = target: T2, MAO A (Homo sapiens, UniProt P21397); experiment: Binding affinity to MAO A in human HC brain homogenate, [18F]fluoroethyl harmine competition; settings: human healthy control brain homogenate; for IC50: 18F-FEH competition; for Low affinity to MAO A (HC homogenate): key: −: poor; ∘: moderate; +: good; ++: very good; +++: excellent
# T2 construct: from tissue; host or cells: human healthy control brain homogenate
# T2 sequence (P21397 1-527): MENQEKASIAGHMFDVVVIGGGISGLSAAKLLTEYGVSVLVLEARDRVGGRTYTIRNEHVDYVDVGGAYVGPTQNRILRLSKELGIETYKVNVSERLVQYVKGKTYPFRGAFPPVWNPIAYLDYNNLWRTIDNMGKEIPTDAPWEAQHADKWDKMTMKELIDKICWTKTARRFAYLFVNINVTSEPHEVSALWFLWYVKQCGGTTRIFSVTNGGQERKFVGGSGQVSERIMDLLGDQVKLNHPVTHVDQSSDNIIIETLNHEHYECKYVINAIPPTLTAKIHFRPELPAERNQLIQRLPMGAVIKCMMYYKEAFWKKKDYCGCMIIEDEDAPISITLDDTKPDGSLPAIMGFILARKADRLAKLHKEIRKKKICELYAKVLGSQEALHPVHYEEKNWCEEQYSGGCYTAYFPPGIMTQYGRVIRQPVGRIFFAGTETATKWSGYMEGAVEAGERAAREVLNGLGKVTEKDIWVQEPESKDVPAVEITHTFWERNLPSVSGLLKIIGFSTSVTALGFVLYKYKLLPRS
# Experimental: as §1, with “of” for “of human Alzheimer disease”, “homogenate (without AD pathology)” for “homogenate”, “18F-labeled MAO-A binder ([^18F]fluoroethyl harmine, FEH).” for “^18F-labeled Tau binder.”, “96-well” for “96 well”, “FEH” for “Tau-reference binder”, “FEH” for “Tau-binder”
# MAO B = target: T3, MAO B (Homo sapiens, UniProt P27338); experiment: Binding affinity to MAO B in HC brain homogenate, [18F]fluoro deprenyl competition; design: Low affinity to MAO B: key: −: poor; ∘: moderate; +: good; ++: very good; +++: excellent
# T3 construct: from tissue; host or cells: human brain homogenate without AD pathology
# T3 sequence (P27338 1-520): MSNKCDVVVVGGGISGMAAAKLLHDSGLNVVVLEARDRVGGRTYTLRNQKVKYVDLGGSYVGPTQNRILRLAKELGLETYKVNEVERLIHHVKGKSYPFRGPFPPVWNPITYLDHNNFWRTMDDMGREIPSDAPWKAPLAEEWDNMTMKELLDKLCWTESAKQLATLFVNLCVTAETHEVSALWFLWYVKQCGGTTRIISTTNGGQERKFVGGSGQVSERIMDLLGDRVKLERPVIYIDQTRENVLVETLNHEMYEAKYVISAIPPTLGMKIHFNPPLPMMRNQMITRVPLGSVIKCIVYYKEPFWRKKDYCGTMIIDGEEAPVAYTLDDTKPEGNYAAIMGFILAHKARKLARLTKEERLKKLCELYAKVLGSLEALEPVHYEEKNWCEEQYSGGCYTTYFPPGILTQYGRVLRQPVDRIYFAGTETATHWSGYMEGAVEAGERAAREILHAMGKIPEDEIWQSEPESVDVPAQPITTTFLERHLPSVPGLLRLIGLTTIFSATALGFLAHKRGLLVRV
# Experimental: as §1, with “human” for “human Alzheimer disease”, “homogenate (without AD pathology)” for “homogenate”, “MAO-B binder ([^18F]fluoro deprenyl).” for “Tau binder.”, “96-well” for “96 well”, “fluoro deprenyl” for “Tau-reference binder”, “fluoro deprenyl” for “Tau-binder”
# [3] = human AD brain homogenate; read-out: IC50 in AD brain homogenate (amyloid-beta)
# [4] = human HC brain homogenate; 18F-fluoro deprenyl competition; read-out: IC50 in HC brain homogenate (MAO B)
Structure (SMILES),High affinity to Tau (Tau),IC50 (Tau) [nM],Low affinity to MAO A (mouse homogenate) (MAO A [1]),IC50 (MAO A [1]) [nM],Low affinity to amyloid-beta (amyloid-beta; AD brain homogenate),IC50 (amyloid-beta; [3]) [nM],Low affinity to MAO A (HC homogenate) (MAO A [2]),IC50 (MAO A [2]) [nM],Low affinity to MAO B (MAO B; HC brain homogenate),IC50 (MAO B; [4]) [nM],IC50 (amyloid-beta; read-out: IC50 in AD brain homogenate (amyloid-beta); human AD brain homogenate) [nM],IC50 (MAO B; read-out: IC50 in HC brain homogenate (MAO B); human HC brain homogenate; 18F-fluoro deprenyl competition) [nM]
Fc1cnc(F)c(-c2ccc3c(n2)[nH]c2ccncc23)c1 [Example F-8],++,9,+++,> 1000,+++,> 1000,+++,> 1000,+++,> 1000,–,–
Fc1nccc(-c2ccc3c(n2)[nH]c2ccncc23)c1F [Example F-3],+++,7,+++,830,+++,> 1000,+++,> 1000,+++,645,–,–
Nc1cc(-c2ccc3c(n2)[nH]c2ccncc23)ccc1F [Example F-10],+++,–,+,25,+++,–,+,24,+++,–,680,> 1000
Fc1nccc(-c2ccc3c(n2)[nH]c2ccncc23)c1Cl [Example F-4],++,26,+++,> 1000,+++,> 1000,+++,> 1000,+++,> 1000,–,–
Fc1cc(-c2ccc3c(n2)[nH]c2ccncc23)cc(F)n1 [Example F-5],++,29,+++,> 1000,+++,> 1000,+++,> 1000,+++,> 1000,–,–

# The next lines start with results.
High affinity to Tau (Tau),IC50 (Tau) [nM],Low affinity to MAO A (mouse homogenate) (MAO A [1]),IC50 (MAO A [1]) [nM],Low affinity to amyloid-beta (amyloid-beta; AD brain homogenate),IC50 (amyloid-beta; [3]) [nM],Low affinity to MAO A (HC homogenate) (MAO A [2]),IC50 (MAO A [2]) [nM],Low affinity to MAO B (MAO B; HC brain homogenate),IC50 (MAO B; [4]) [nM],Structure (SMILES),IC50 (amyloid-beta; read-out: IC50 in AD brain homogenate (amyloid-beta); human AD brain homogenate) [nM],IC50 (MAO B; read-out: IC50 in HC brain homogenate (MAO B); human HC brain homogenate; 18F-fluoro deprenyl competition) [nM]
+++,8.7,++,152,–,–,–,–,–,–,N#Cc1cc(-c2ccc3c(n2)[nH]c2ccncc23)ccc1F [Example F-9a],–,–
++,17,+++,> 1000,+++,> 1000,+++,> 1000,+++,> 1000,Fc1cc(-c2ccc3c(n2)[nH]c2ccncc23)c(F)cn1 [Example F-6],–,–
++,10,+++,701,+++,> 1000,+++,739,++,387,Fc1ccc(-c2ccc3c(n2)[nH]c2ccncc23)c(F)n1 [Example F-7],–,–
++,13,++,181,+++,> 1000,++,333,+++,> 1000,N#Cc1ccc(-c2ccc3c(n2)[nH]c2ccncc23)cc1F [Example F-9],–,–
